Assay results from patent US20030220310A1, “Epoxy-steroidal aldosterone antagonist and calcium channel blocker combination therapy for treatment of congestive heart failure” (priority 2003, published 2003).
“And” between values parts separate entries of the source, which are not always exact repeats. Identical values can stand only once.

Assays:
[1] = Differential scanning calorimetry, melting/decomposition; format: physicochemical; conditions: cooling rate (0) 1.5° C./min.; endpoint (0) 25° C.; 100.8% eplerenone seeded with Form H; analyzed by DSC
Text: Melting/decomposition ranges were defined from the extrapolated onset to the maximum of the melting/decomposition endotherm. […] One or more endothermal events at lower temperatures were associated with enthalpy changes that occurred as solvent was lost from the solvate crystal lattice. The highest temperature endotherm or endotherms were associated with the melting/decomposition of Form L or Form H eplerenone.

[2] = X-ray powder diffraction, Form H content of dried solids; format: physicochemical; conditions: for Form H Peak Area 12° Two Theta Peak / Estimated Weight Percent of Form H: methyl ethyl ketone solvate dried at 100° C.
[3] = as above; format: physicochemical; conditions: methyl ethyl ketone solvate dried at 100° C.
Method: For the Siemens D500 powder diffractometer, the raw data was measured for 2q values from 2 to 50, with steps of 0.020 and step periods of two seconds. For the Inel Multipurpose Diffractometer, samples were placed in an aluminum sample holder and raw data was collected for 30 minutes at all two theta values simultaneously.
The weight percent of the diepoxide or 11,12-epoxide in each sample is given in Tables X-6A and X-6B, respectively. A micro-flea magnetic stirrer was added to each scintillation vial along with 1 mL of methyl ethyl ketone. The vials were loosely capped and the solid dissolved by heating to reflux on a hot plate with magnetic stirring. Once the solids were dissolved, the solutions were allowed to cool to room temperature on the hot plate. Magnetic stirring was maintained during the cooling period. After the solutions reached room temperature, the solids were collected by vacuum filtration and immediately analyzed by X-ray powder diffraction (XPRD). The solids were then placed in a 100° C. oven and dried for one hour at ambient pressure. The dried solids were analyzed by XPRD for Form H content by monitoring the area of the Form H diffraction peak at about 12.1 degrees two theta. All XPRD diffraction patterns were recorded using an Inel Multipurpose Diffractometer.
The area for the Form H diffraction peak at about 12.1 degrees two theta and the estimated Form H content for each sample are given in Table X-6C below.

[4] = test system: rats made hypertensive by renal artery clip; test: Assay C: Hypertensive Rat Model; format: in vivo; conditions: combination of calcium channel blocker and epoxymexrenone versus either component alone, after 12 to 24 weeks
Method: Assay “C”: Hypertensive Rat Model Male rats are made hypertensive by placing a silver clip with an aperture of 240 microns on the left renal artery, leaving the contralateral kidney untouched. Sham controls undergo the same procedure but without attachment of the clip. One week prior to the surgery, animals to be made hypertensive are divided into separate groups and drug treatment is begun. Groups of animals are administered vehicle, calcium channel blocker alone, epoxymexrenone alone, and combinations of calcium channel blocker and epoxymexrenone at various doses: [table] After 12 to 24 weeks, systolic and diastolic blood pressure, left ventricular end diastolic pressure, left ventricular dP/dt, and heart rate are evaluated. The hearts are removed, weighed, measured and fixed in formalin. Collagen content of heart sections are evaluated using computerized image analysis of picrosirius stained sections.

[5] = test system: patients with mild to moderate hypertension; test: Example 19 clinical study: eplerenone versus placebo co-administered with a calcium-channel blocker; format: in vivo, human
Text: This multicenter, randomized, double-blind, placebo-controlled, placebo run-in, parallel group trial involving a minimum of 120 randomized patients with hypertension (seated diastolic blood pressure [seDBP] ≧95 mmHg and <110 mmHg and seated systolic BP [seSBP] <180 mmHg while taking a CCB) will consist of a one- to two-week pretreatment screening period followed by a two- to four-week single-blind placebo run-in period and an 8-week double-blind treatment period. Eligible patients will be patients currently receiving a CCB as part of their antihypertensive medication. […] The dose will not be changed for patients with adequate BP control. […] If the dose has been increased at Week 2, the patient will be reassessed at Week 6. […] If BP is uncontrolled at Week 6 and the dose has been increased at Week 2 or Week 4, the patient must be withdrawn from the study. If symptomatic hypotension (i.e., lightheadedness, dizziness, or syncope associated with low BP) occurs at any time during the study, or if DBP is ≧110 mmHg or SBP is ≧180 mmHg at any time during the trial, the patient must be withdrawn. Patients will receive study medication for a total of 8 weeks.
Patients will return to the clinic for evaluations at Weeks 0 (baseline), 2, 4, 6, 8, and 9. Heart rate, BP, adverse events and concomitant medication will be assessed at each visit. Hematology and biochemistry evaluations and urinalysis for safety will be at Weeks 0, 8, and 9. Serum potassium levels will be determined at Weeks 0 (baseline), 2, 4, 6, 8, and 9. Plasma renin, serum aldosterone, and plasma cortisol will be determined at Weeks 0 and 8. A 12-lead electrocardiogram and physical examination will be done at screening and at Week 9.
Eligible patients will be either currently receiving a CCB alone, or receiving a CCB as part of their antihypertensive medication. […] The dose will not be changed for patients with adequate BP control. […] If the dose has been increased at Week 2, the patient will be reassessed at Week 6. The dose of study medication will not be changed for patients with adequate BP control. […] If BP is uncontrolled at Week 6 and the dose has been increased at Week 2 or Week 4, the patient must be withdrawn from the study. The dose of study medication will not be changed for patients with adequate BP control. If symptomatic hypotension (i.e., lightheadedness, dizziness, or syncope associated with low BP) occurs at any time during the study, or if DBP is ≧110 mmHg or SBP is ≧180 mmHg at any time during the study, the patient must be withdrawn. Patients will receive study medication for a total of eight weeks.
Patients will return to the clinic for evaluations at Weeks 0, 2, 4, 6, 8, and 9. Heart rate, BP, adverse events and concomitant medication will be assessed at each visit. Hematology and biochemistry evaluations and urinalysis for safety will be at Weeks 0, 8, and 9. Serum potassium levels will be determined at Weeks 0, 2, 4, 6, 8, and 9. Plasma renin, serum aldosterone, and plasma cortisol will be determined at Weeks 0 and 8. A 12-lead electrocardiogram and physical examination will be done at screening and at Week 9.
The treatment difference will be evaluated based on the mean change from baseline in seated trough cuff DBP at Week 8.

[6] = test system: rats with ligated left anterior descending coronary artery; test: Assay D: Myocardial Infarction Rat Model; format: in vivo; conditions: combination of calcium channel blocker and epoxymexrenone versus either component alone, after six weeks
Method: Assay “D”: Myocardial Infarction Rat Model: Male rats are anesthetized and the heart is exteriorized following a left sided thoracotomy. The left anterior descending coronary artery is ligated with a suture. The thorax is closed and the animal recovers. Sham animals have the suture passed through without ligation. One week prior to the surgery, animals to undergo infarction are divided into separate groups and drug treatment is begun. Groups of animals are administered vehicle, calcium channel blocker alone, epoxymexrenone alone, and combinations of calcium channel blocker and epoxymexrenone, at various doses, as follow: [table] After six weeks, systolic and diastolic blood pressure, left ventricular end diastolic pressure, left ventricular dP/dt, and heart rate are evaluated. The hearts are removed, weighed, measured and fixed in formalin. Collagen content of heart sections are evaluated using computerized imaged image analysis of picrosirius stained sections.

[7] = 1% 11,12-epoxide in starting eplerenone mixture
[8] = 3% diepoxide in starting eplerenone mixture
[9] = 5% diepoxide in starting eplerenone mixture
[10] = 10% 11,12-epoxide in starting eplerenone mixture
[11] = 0% 11,12-epoxide in starting eplerenone mixture
[12] = 5% 11,12-epoxide in starting eplerenone mixture
[13] = CCB and eplerenone compared to CCB and placebo
[14] = eplerenone plus CCB versus CCB plus placebo, eight weeks, hypertensive patients

SMILES: COC(=O)[C@@H]1CC2=CC(=O)CC[C@]2(C)C23O[C@@H]2C[C@@]2(C)[C@@H](CC[C@@]24CCC(=O)O4)[C@H]13 (stereo partly drawn) [eplerenone, Pregn-4-ene-7,21-dicarboxylic acid, 9,11-epoxy-17-hydroxy-3-oxo-,γ-lactone, methyl ester, (7α,11α,17β)-]
- Weight Percent Form H (DSC) [1]: 100 Weight Percent
- Form H Peak Area 12° Two Theta Peak [2, 7]: None Detected
- Estimated Weight Percent of Form H [2, 8]: 10%
- Form H Peak Area 12° Two Theta Peak [2, 8]: 1168
- Form H Peak Area 12° Two Theta Peak [2, 9]: 4175
- Estimated Weight Percent of Form H [2, 10]: 10-15%
- Form H Peak Area 12° Two Theta Peak [2, 10]: 1541
- Weight Percent Form H ([2]; Cooling Rate High, End Point High, Impurity Level High, High Fluid Bed drying): 25%
- Weight Percent Form H ([2]; Cooling Rate High, End Point High, Impurity Level High, Low Fluid Bed drying): 4.7%
- Weight Percent Form H ([2]; Cooling Rate High, End Point High, Impurity Level High, Vacuum Oven drying): 29%
- Weight Percent Form H ([2]; Cooling Rate Low, End Point Low, Impurity Level Low, Low Fluid Bed drying): 5.5%
- Weight Percent Form H (XPRD) ([2]; cooling rate (0) 1.5° C./min., endpoint (0) 25° C., 100.8% eplerenone seeded with Form H, analyzed by XPRD): 77 Weight Percent
- Weight Percent Form H (XPRD) ([2]; cooling rate (0) 1.5° C./min., endpoint (0) 25° C., impurity level (0) = 100.8% purity eplerenone starting material as printed, three runs): 5 Weight Percent and <3% Weight Percent
- Weight Percent Form H (XPRD) ([2]; cooling rate (+) 3° C./min., endpoint (+) 45° C., impurity level (+) 89.3% purity eplerenone starting material): 29 Weight Percent
- Weight Percent Form H (XPRD) ([2]; cooling rate (+) 3° C./min., endpoint (−) 5° C., impurity level (+) 89.3% purity eplerenone starting material): 9 Weight Percent
- Weight Percent Form H (XPRD) ([2]; cooling rate (−) 0.1° C./min., endpoint (+) 45° C., impurity level (+) 89.3% purity eplerenone starting material): 31 Weight Percent
- Estimated Weight Percent of Form H [3, 11]: None Detected
- Form H Peak Area 12° Two Theta Peak [3, 11]: None Detected
- Estimated Weight Percent of Form H [3, 7]: None Detected
- Estimated Weight Percent of Form H [3, 12]: None Detected
- Form H Peak Area 12° Two Theta Peak [3, 12]: None Detected
- Estimated Weight Percent of Form H [3, 9]: 30%
- cardiac performance [4]: improvements in cardiac performance
- Active renin levels [5, 13]: greater increase
- aldosterone levels [5, 13]: greater increase
- serious adverse events ([5]; eplerenone added to CCB therapy): no serious adverse events
- change in mean diastolic blood pressure [5, 14]: greater for the dual therapy group, compared to monotherapy, but this difference did not reach statistical significance
- change in systolic blood pressure [5, 14]: significant reduction
- cardiac performance [6]: improvements in cardiac performance
